Experimental data reported in US20240148874A1, “IMMUNOADJUVANT-BASED HYDROGEL COMPOSITION AND USE THEREOF” (SOOCHOW UNIVERSITY, priority 2020, published 2024).

What was measured:
Type in all cases: in vivo
CT26 colon cancer tumor [1] = test: Chemotherapy sensitization with smart hydrogel in colon cancer subcutaneous tumor mouse model (Example 3); conditions: CT26 tumor-bearing BALB/c mice, compared with control group; CpG-ODN 15 μg per mouse intratumoral; oxaliplatin 3 mg/kg i.v. days 7, 10, 13, 16
Description: The mice were treated on day 7 after the inoculation of CT26 colon cancer tumor. Tumor-bearing BALB/c mice were randomly divided into the following 6 groups (6 mice in each group): Group 1: control group (untreated); Group 2: intratumoral injection of sodium alginate and intravenous injection of oxaliplatin (ALG+OxPt); Group 3: intratumoral injection of mixture of sodium alginate with CpG-ODN (ALG/CpG); Group 4: intratumoral injection of mixture of sodium alginate and CpG-ODN and intravenous injection of oxaliplatin (ALG/CpG+OxPt); Group 5: intratumoral injection of smart sodium alginate hydrogel preparation (ALG-Aapt/CpG) capable of ATP-responsive slow release of immunoadjuvant obtained in Step (5) of Example 2; Group 6: intratumoral injection of smart sodium alginate hydrogel preparation capable of ATP-responsive slow release of immunoadjuvant obtained in Step (5) of Example 2, and intravenous injection of oxaliplatin (ALG-Aapt/CpG+OxPt). The final concentration of sodium alginate in each treatment group was 10 mg/mL, the volume of intratumoral injection was 25 μL, and the dose of CpG-ODN per mouse was 15 μg. On days 7, 10, 13 and 16, oxaliplatin was administered intravenously at a dose of 3 mg/kg body weight. After respective treatments for the mice, the tumor growth was measured.

CT26 colon cancer tumor [2] = test: Chemotherapy sensitization in mouse colon cancer subcutaneous tumor model (Example 1); conditions: CT26 tumor-bearing BALB/c mice, compared with control group; intratumoral 25 μL, CpG-ODN 15 μg per mouse; oxaliplatin 3 mg/kg i.v. days 7, 10, 13, 16
From the text: The sodium alginate hydrogel radiotherapy/chemotherapy sensitizing agent encapsulating the immunoadjuvant CpG-ODN was used for chemotherapy sensitization in a mouse colon cancer subcutaneous tumor model. The treatment was started on day 7 after inoculation of the mouse CT26 colon cancer tumor. Tumor-bearing BALB/c mice were randomly divided into the following 4 groups (6 mice in each group): Group 1: control group (untreated); Group 2: intratumoral injection of sodium alginate and intravenous injection of oxaliplatin (ALG+OxPt);
Group 3: intratumoral injection of sodium alginate hydrogel radiotherapy/chemotherapy sensitizing agent encapsulating the immunoadjuvant CpG-ODN (ALG/CpG); Group 4: intratumoral injection of sodium alginate hydrogel radiotherapy/chemotherapy sensitizing agent encapsulating the immunoadjuvant CpG-ODN, and intravenous injection of oxaliplatin (ALG/CpG+OxPt). The final concentration of sodium alginate in each treatment group was 10 mg/mL, the volume of intratumoral injection was 25 μL, and the dose of CpG-ODN per mouse was 15 μg. On days 7, 10, 13 and 16, oxaliplatin was administered intravenously at a dose of 3 mg/kg body weight. After respective treatments for the mice, the tumor growth was measured.

CT26 colon cancer tumor [3] = test: Immune response evaluation in chemotherapy sensitization, colon cancer subcutaneous tumor mouse model (Example 4); conditions: day 5 after treatment, CT26 BALB/c mice, compared with control group
Description: The mice were treated on day 7 after the inoculation of CT26 colon cancer tumor. Tumor-bearing BALB/c mice were randomly divided into the following 4 groups (6 mice in each group): Group 1: control group (untreated); Group 2: intratumoral injection of sodium alginate and intravenous injection of oxaliplatin (OxPt); Group 3: intratumoral injection of smart sodium alginate hydrogel preparation (ALG-A-Apt/CpG) capable of ATP-responsive slow release of immunoadjuvant obtained in Step (5) of Example 2; Group 4: intratumoral injection of smart sodium alginate hydrogel preparation capable of ATP-responsive slow release of immunoadjuvant obtained in Step (5) of Example 2 and intravenous injection of oxaliplatin (ALG-A-Apt/CpG@OxPt). The final concentration of sodium alginate in each treatment group was 10 mg/mL, the volume of intratumoral injection was 25 μL, and the dose of CpG-ODN per mouse was 15 μg. On days 7, 10, 13 and 16, oxaliplatin was administered intravenously at a dose of 3 mg/kg body weight. On day 5 after the treatment, mice in each group were sacrificed, and the maturity of dendritic cells in inguinal lymph nodes, percentage of CD8 positive T cells in the tumor, and ratio of CD8 positive T cells to regulatory T cells was identified.

Substance: oxaliplatin [ALG+OxPt]
- tumor growth (CT26 colon cancer tumor [1]): only partially inhibited
- tumor growth (CT26 colon cancer tumor [2]): significantly inhibited
- percentage of CD8 positive T cells in the tumor (CT26 colon cancer tumor [3]): not significantly improved
- ratio of CD8 positive T cells to regulatory T cells (CT26 colon cancer tumor [3]): not significantly improved
- maturity of dendritic cells (DC) in lymph nodes (CT26 colon cancer tumor [3]; inguinal lymph nodes): not significantly improved
